In patent US11760889B2, “Unsaturated fatty alcohol derivatives from natural oil metathesis” (priority 2012, dated 2023):

Key:
[1] = Surfactant phase behavior study (cross-polarized microscopy); type: physicochemical; conditions: room temperature (20-22° C.)
Method: Phase behavior is observed using an Olympus BH-2 cross-polarized microscope at 100-400× and room temperature (20° C. to 22° C.). The inventive monounsaturated sulfates and ethoxylate sulfates are compared with their saturated analogs, and in some cases, commercial surfactants.
Samples are prepared by diluting the most concentrated product gradually with deionized water. When the surfactant concentration approaches a phase transition, the concentration is varied at 2-4% intervals to estimate the phase boundary. The actives level reported in Table 15 for each phase boundary is within ±5% of the true boundary.
Samples are loaded between a microscope slide and cover glass and are allowed to equilibrate before observation. Microscopic texture is analyzed and used to determine the phase. For some samples, an AR 2000 rheometer (TA Instruments) is used to measure viscosity at 25° C. to further verify phase behavior.

[2] = Anionic emulsifier: emulsion stability testing of EW concentrate (modified ASTM E1116-98)
Method: Turbidity changes are noted and recorded.
A Mohr pipette is used to feed EW concentrate to each cylinder. Cylinders are stoppered and inverted ten times, then allowed to stand for 0.5, 1, and 24 h while recording stability at each time as type and % separation.
Spontaneity is recorded according to the following criteria: (1) poor: very thin emulsion cloud with major separation of oil droplets; (2) fair: thin emulsion cloud with minor separation of oil droplets; (3) good: thin emulsion cloud reaches the bottom of the cylinder without separation of any type; (4) excellent: thick emulsion cloud reaches the bottom of the cylinder without separation of any type.

[3] = Water-soluble herbicide formulation testing (standard dilution test, emulsion stability); type: physicochemical; design: key to Emulsion stability, mL separation, 24 h: Tr = trace; conditions: 342 ppm water;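 note: diluted in a 50 mL Nessler cylinder held at 30 °C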
Method: Surfactant candidates for water soluble herbicide applications are examined as a replacement for the anionic, nonionic, or anionic/nonionic blend portion and compared to a known industry adjuvant standard for use in paraquat, a water soluble herbicide concentrate formulation. A standard dilution test is conducted whereby the concentrates are diluted in water to determine if solubility is complete.
The cylinder is stoppered and inverted ten times. Solubility is recorded as complete or incomplete. Cylinders are allowed to stand and the amount (in mL) and type of separation are recorded after 30 min., 1 h, 2 h, and 24 h. Results of the solubility testing appear in Table 3 below.
An eight to ten mole alkyl phenol ethoxylate surfactant (0.7 g) is added and vigorously mixed for 30 s. Test sample (0.7 g) is added and mixing resumes for 30 s.
Test sample (0.7 g) is added and vigorously mixed for 30 s. Sodium linear alkylbenzene sulfonate (“NaLAS,” 0.7 g) is added and mixing resumes for 30 s.

[4] = Adjuvant (anionic/nonionic) test sample

| Compound | Estimated Phase Region: Hexagonal [1] | Estimated Phase Region: Isotropic Clear [1] | Estimated Phase Region: Solid/gum/paste [1] | % Separation, 1 h ([2]; 34 ppm water) | % Separation, 24 h ([2]; 34 ppm water) | % Separation, 1 h ([2]; 1000 ppm water) | % Separation, 24 h ([2]; 1000 ppm water) | Emulsion stability, mL separation, 1 h [3, 4] | Emulsion stability, mL separation, 24 h [3, 4] | Emulsion stability, mL separation, 1 h ([3]; Anionic test sample) | Emulsion stability, mL separation, 24 h ([3]; Anionic test sample) | Emulsion stability, mL separation, 1 h ([3]; Nonionic test sample) | Emulsion stability, mL separation, 24 h ([3]; Nonionic test sample) | Estimated Phase Region: Lamellar [1] |
| --- | --- | --- | --- | --- | --- | --- | --- | --- | --- | --- | --- | --- | --- | --- |
| CCCCCCCCCCOS(=O)(=O)[O-].[Na+] [sat. analog of A10-3, reference compound] | 41-59 % actives | 0-41 % actives | 59-100 % actives | – | – | – | – | – | – | – | – | – | – | – |
| 7 Mole Ethoxylated C10 Alcohol, Ammonium Sulfate [A10-14] | – | – | – | 3.5% | 4% | 3.5% | 4.1% | – | – | – | – | – | – | – |
| 5 Mole Ethoxylated C10 Alcohol, Ammonium Sulfate [A10-11] | – | – | – | 3.9% | 5% | 2.5% | 3.1% | – | – | – | – | – | – | – |
| CCCCCCCCCCCCOS(=O)(=O)[O-].[Na+] [sat. analog of A12-3, reference compound] | – | 0-31 % actives | 31-100 % actives | – | – | – | – | – | – | – | – | – | – | – |
| 15 Mole Ethoxylated C10 Alcohol, Sodium Sulfate [A10-18] | – | – | – | 2.5% | 2.8% | 4% | 4% | 0 mL | 0 mL | 0 mL | 0 mL | 0 mL | 0 mL | – |
| 15 Mole Ethoxylated C10 Alcohol, Ammonium Sulfate [A10-17] | – | – | – | 1.5% | 2.2% | 1.5% | 2% | – | – | – | – | – | – | – |
| 5 Mole Ethoxylated C12 Alcohol, Ammonium Sulfate [A12-11] | – | – | – | 3.6% | 3.8% | 2.1% | 3% | – | – | – | – | – | – | – |
| 5 Mole Ethoxylated C12 Alcohol, Sodium Sulfate [A12-12] | – | – | – | 4.1% | 4.5% | 3% | 3.8% | 0 mL | 0 mL | 0 mL | 0 mL | 0 mL | 0 mL | – |
| 1 Mole Ethoxylated C12 Alcohol, Sodium Sulfate [A12-6] | – | – | – | 4.3% | 5.2% | 2.7% | 3.7% | 0 mL | 0 mL | 0 mL | 0 mL | 0 mL | 0 mL | – |
| C=CCCCCCCCCOS(=O)(=O)[O-].[Na+] [A10-3] | 43-70 % actives | 0-43 % actives | 81-100 % actives | 4% | 4% | 3% | 3.1% | 0 mL | 0 mL | 0 mL | 0 mL | 0 mL | Tr | 70-81 % actives |
| 7 Mole Ethoxylated C10 Alcohol, Sodium Sulfate [A10-15] | – | – | – | 3.5% | 3.9% | 3% | 4.1% | 0 mL | 0 mL | 0 mL | 0 mL | 0 mL | 0 mL | – |
| 15 Mole Ethoxylated C12 Alcohol, Sodium Sulfate [A12-18] | – | – | – | 3% | 4.3% | 2.5% | 3.9% | 0 mL | 0 mL | 0 mL | 0 mL | 0 mL | 0 mL | – |
| 3 Mole Ethoxylated C10 Alcohol, Sodium Sulfate [A10-9] | – | – | – | 4% | 3.6% | 3.5% | 3.9% | 0 mL | 0 mL | 0 mL | 0 mL | 0 mL | 0 mL | – |
